Assay results published in BindingDB's records for doi:10.1021/jm501636x (University of Massachusetts Medical School, 2015).

Test: Inhibition of PAD4 in C57BL/6 mouse bone marrow neutrophils assessed as inhibition of PMA-stimulated neutrophil extracellular trap formation preincubated for 30 mins followed by PMA stimulation measured after 3 to 4 hrs by DNA/neutrophil elastase overlap assay

SMILES: CC(C)(C)n1nnc([C@H](CCCNC(=N)CCl)NC(=O)c2ccc(-c3ccccc3)cc2)n1
- EC50: 20 µM
